Data: US3959272A, “Aminoalkyl esters of 2-anilino-nicotinic acids” (Societe Anonyme dite: Hexachime, priority 1972, dated 1976)

How the values were obtained:
[1] = Escape test; type: in vivo; settings: Mus musculus, ip, 0.5 h, read-out: Percentage inhibition (number of attempts to escape)
Experimental: Groups of 8 mice were placed in sub groups of 4 in an enclosure from which they could escape by an inclined plane. The number of attempts to escape during 5 minutes were counted half an hour after intraperitoneal administration of the compound under test.

[2] = Post-operative pain following bone surgery, patients; type: in vivo, human (patients)
Experimental: The product of Example 1 has been administered to patients suffering from post-operative pain following bone surgery. 10 Patients received the compound at a daily dosage of 150 mg orally. Complete or partial analgesia was felt by 5 patients and slight analgesia by a further 4. When administered intramuscularly at a dosage of 20 to 100 mg per day to 9 patients, the product of Example 1 produced complete analgesia in 5, partial analgesia in 2 and slight analgesia in the remaining 2. […] Eight patients received the product of Example 1 rectally in a dosage of 300 mg per day.

[3] = Analgesic activity: Siegmund's test (phenylbenzoquinone painful reactions); type: in vivo; settings: Mus musculus, po, read-out: percentage inhibition of reactions
Experimental: This activity was measured by Siegmund's test in mice and Randall and Selitto's test in the rat.
Groups of six mice received the compound under test orally 1 hour before intraperitoneal injection of 0.2 ml of an 0.02% of solution of phenylbenzoquinone. The number of painful reactiors from the fifth to the tenth minute after the injection of phenylbenzoquinone was counted.

[4] = Cardiovascular parameters: intact dogs; type: in vivo, dog; settings: for Average pressure / Diastolic pressure / Systolic pressure: in % (unit assumed)
Experimental: Unsorted dogs of either sex weighing 8 to 17 kg and anaesthetised by chloralose in solution in polyethylene glycol 300 (0.12 g/kg) were respirated artificially using a Bird pump (Mark 7). The carotid arterial blood pressure was measured with the aid of a Statham P 23 dB device. The left ventricular pressure is measured with the same device connected by a supple catheter introduced by the femoral artery and pushed into the left ventricle. The cardiac rhythm is measured from the signals of the carotid pressure. The myocardial contractile force is measured using a strain gauge (Apelab) attached to the right ventricle. All the parameters are recorded on a Beckman polygraph. Two series of dogs are used to test the cardiovascular activity: 5 dogs atropinised (1 mg/kg intravenously) and bivagotomised; and a second series of 4 intact dogs. The product of Example 1 was injected through the saphena vein and the duration of the injection was 2 minutes.
The following Table IX gives the variations of the parameters recorded and their significance according to the t test (* p<0.05; ** p<0.01; *** p<0.001).

[5] = Action on the activity of noradrenaline in dogs; settings: dog, in vivo
[6] = Acute toxicity in the rat; settings: in vivo
[7] = Stimulation of dental pulp in the rabbit; type: in vivo
Experimental: 24 Hours before the test, each incisor of the rabbit is drilled 1 mm below the gum to a depth of about 1 mm. The next day, the animals are placed in restraining boxes and stimulating electrodes are placed in position. The threshold of reaction to the electrical stimulation (at 30 Hz; 10 ms; for 1 s) is measured by the munching reaction of the rabbits. The product of Example 1 was administered intravenously and its effect on the pain threshold was measured at regular intervals after treatment.

[8] = Acute toxicity in the mouse; settings: in vivo
[9] = 150 mg daily orally, 10 patients
[10] = 300 mg per day rectally, eight patients
[11] = 20 to 100 mg per day intramuscularly, 9 patients
[12] = 50 to 100 mg per day intravenously, slow injection, 13 patients
[13] = 16 mg/kg intravenously, 4 dogs, ** p<0.01

Which results are given for `Cc1cccc(Nc2ncccc2C(=O)OCCN2CCOCC2)c1C` [Example 1, β-Morpholino ethyl nixylate]?
change in vivo at 8 mg/kg ([1]; 8 mg/kg intraperitoneally): 6%; change in vivo at 16 mg/kg ([1]; 16 mg/kg intraperitoneally): 3%; change in vivo at 32 mg/kg ([1]; 32 mg/kg intraperitoneally): -8%; change in vivo at 64 mg/kg ([1]; 64 mg/kg intraperitoneally): -51%; change in vivo at 128 mg/kg ([1]; 128 mg/kg intraperitoneally): -100%; complete or partial analgesia [2, 9]: 5 patients; slight analgesia [2, 9]: 4 patients; moderate analgesia [2, 10]: one; no analgesia [2, 10]: the last one no analgesia; strong analgesia [2, 10]: Six; complete analgesia [2, 11]: 5 patients; partial analgesia [2, 11]: 2 patients; slight analgesia [2, 11]: 2 patients; complete analgesia [2, 12]: 9 patients; moderate analgesia [2, 12]: 3 patients; no analgesia [2, 12]: no analgesia in the remaining patient; inhibition in vivo at 4 mg/kg ([3]; 4 mg/kg orally): 10%; inhibition in vivo at 8 mg/kg ([3]; 8 mg/kg orally): 26%; inhibition in vivo at 16 mg/kg ([3]; 16 mg/kg orally): 26%; inhibition in vivo at 32 mg/kg ([3]; 32 mg/kg orally): 45%; inhibition in vivo at 64 mg/kg ([3]; 64 mg/kg orally): 64%; inhibition in vivo at 128 mg/kg ([3]; 128 mg/kg orally): 83%; inhibition in vivo at 256 mg/kg ([3]; 256 mg/kg orally): 95%; Alteration in cardiac rhythm ([4]; 1 mg/kg intravenously, 4 dogs): -1 beats per minute; Duration of the hypotension ([4]; 1 mg/kg intravenously, 4 dogs): 30; Average pressure ([4]; 1 mg/kg intravenously, 4 dogs): -9±5.2; Diastolic pressure ([4]; 1 mg/kg intravenously, 4 dogs): -10±5.7; Systolic pressure ([4]; 1 mg/kg intravenously, 4 dogs): -8±4.6; Alteration in cardiac rhythm ([4]; 4 mg/kg intravenously, 4 dogs): -15 beats per minute; Duration of the hypotension ([4]; 4 mg/kg intravenously, 4 dogs): 60; Diastolic pressure ([4]; 4 mg/kg intravenously, 4 dogs, * p<0.05): -18±5.5; Average pressure ([4]; 4 mg/kg intravenously, 4 dogs): -16±5.4; Systolic pressure ([4]; 4 mg/kg intravenously, 4 dogs): -15±5.3; Alteration in cardiac rhythm ([4]; 8 mg/kg intravenously, 2 dogs): -22 beats per minute; Average pressure ([4]; 8 mg/kg intravenously, 2 dogs): -38; Diastolic pressure ([4]; 8 mg/kg intravenously, 2 dogs): -41; Systolic pressure ([4]; 8 mg/kg intravenously, 2 dogs): -34; Alteration in cardiac rhythm ([4]; 16 mg/kg intravenously, 4 dogs): -37 beats per minute; Duration of the hypotension ([4]; 16 mg/kg intravenously, 4 dogs): > 50; Average pressure [4, 13]: -54±4.3; Systolic pressure [4, 13]: -45±7; Diastolic pressure ([4]; 16 mg/kg intravenously, 4 dogs, *** p<0.001): -57±3.8; biphasic action on the recorded parameters ([4]; different dosages): No biphasic action on the recorded parameters was observed; action on the activity of noradrenaline [5]: without action on the activity of noradrenaline; LD50 at 168 h ([6]; ip): 875 mg/kg; LD50 at 168 h ([6]; po): > 2350 mg/kg; Threshold, % (increase) ([7]; 2.5 mg/kg intravenously, 1h30): 59%; Threshold in volts ([7]; 2.5 mg/kg intravenously, 1h30, pre-treatment 2.26): 3.61 volts; Threshold, % (increase) ([7]; 2.5 mg/kg intravenously, 2h30): 47%; Threshold in volts ([7]; 2.5 mg/kg intravenously, 2h30, pre-treatment 2.26): 3.33 volts; Threshold, % (increase) ([7]; 2.5 mg/kg intravenously, 15 min): 38%; Threshold in volts ([7]; 2.5 mg/kg intravenously, 15 min, pre-treatment 2.26): 3.12 volts; Threshold, % (increase) ([7]; 2.5 mg/kg intravenously, 30 min): 33%; Threshold in volts ([7]; 2.5 mg/kg intravenously, 30 min, pre-treatment 2.26): 3.02 volts; Threshold, % (increase) ([7]; 2.5 mg/kg intravenously, 1 h): 41%; Threshold in volts ([7]; 2.5 mg/kg intravenously, 1 h, pre-treatment 2.26): 3.20 volts; Threshold, % (increase) ([7]; 2.5 mg/kg intravenously, 2 h): 56%; Threshold in volts ([7]; 2.5 mg/kg intravenously, 2 h, pre-treatment 2.26): 3.54 volts; Threshold, % (increase) ([7]; 5 mg/kg intravenously, 1h30): 59%; Threshold in volts ([7]; 5 mg/kg intravenously, 1h30, pre-treatment 2.54): 4.05 volts; Threshold, % (increase) ([7]; 5 mg/kg intravenously, 2h30): 15%; Threshold in volts ([7]; 5 mg/kg intravenously, 2h30, pre-treatment 2.54): 2.94 volts; Threshold, % (increase) ([7]; 5 mg/kg intravenously, 15 min): 95%; Threshold in volts ([7]; 5 mg/kg intravenously, 15 min, pre-treatment 2.54): 4.97 volts; Threshold, % (increase) ([7]; 5 mg/kg intravenously, 30 min): 88%; Threshold in volts ([7]; 5 mg/kg intravenously, 30 min, pre-treatment 2.54): 4.80 volts; Threshold, % (increase) ([7]; 5 mg/kg intravenously, 1 h): 58%; Threshold in volts ([7]; 5 mg/kg intravenously, 1 h, pre-treatment 2.54): 4.02 volts; Threshold, % (increase) ([7]; 5 mg/kg intravenously, 2 h): 30%; Threshold in volts ([7]; 5 mg/kg intravenously, 2 h, pre-treatment 2.54): 3.31 volts; Threshold, % (increase) ([7]; 10 mg/kg intravenously, 1h30): 52%; Threshold in volts ([7]; 10 mg/kg intravenously, 1h30, pre-treatment 2.65): 4.05 volts; Threshold, % (increase) ([7]; 10 mg/kg intravenously, 2h30): 24%; Threshold in volts ([7]; 10 mg/kg intravenously, 2h30, pre-treatment 2.65): 3.29 volts; Threshold, % (increase) ([7]; 10 mg/kg intravenously, 15 min): 74%; Threshold in volts ([7]; 10 mg/kg intravenously, 15 min, pre-treatment 2.65): 4.62 volts; Threshold, % (increase) ([7]; 10 mg/kg intravenously, 30 min): 118%; Threshold in volts ([7]; 10 mg/kg intravenously, 30 min, pre-treatment 2.65): 5.80 volts; Threshold, % (increase) ([7]; 10 mg/kg intravenously, 1 h): 69%; Threshold in volts ([7]; 10 mg/kg intravenously, 1 h, pre-treatment 2.65): 4.49 volts; Threshold, % (increase) ([7]; 10 mg/kg intravenously, 2 h): 40%; Threshold in volts ([7]; 10 mg/kg intravenously, 2 h, pre-treatment 2.65): 3.72 volts; LD50 at 168 h ([8]; ip): 700 mg/kg; LD50 at 168 h ([8]; iv): 110 mg/kg; LD50 at 168 h ([8]; po): 1600 mg/kg
